Experimental data from patent publication US20260132129A1 (Genesis Therapeutics, Inc., priority 2022, published 2026).

Biological target: T1, PI3Kα H1047R (T47D cells) (Homo sapiens, UniProt P42336, H1047R)
T1 construct: endogenous in cells; host or cells: T47D cells
Assay: PI3Kα cellular assay: pAKT HTRF in T47D cells after EGF stimulation
Type: cell-based
Settings: for IC50: T47D cells (PI3Kα H1047R), pAKT S473 HTRF, 1 hr compound, 20 ng/ml EGF 10 min
Method: SKBR3 or T47D cells are seeded in DMEM containing 10% FBS at 25k cells/well into 96-well cell culture format. Cells are incubated overnight at 37° C. in a 5% CO2 incubator and the following day cell media is aspirated, adherent cells are washed 1× with room temperature PBS prior to serum-free media application. Cells are returned to 37° C. 5% CO2 incubator and incubated a further 16 hrs. Compounds are added to serum starved adherent cells with a top dose of 10,000 nM and 3× multiple dose reductions for a minimum dose of 0.5 nM diluted in DMSO. Cell/compound incubation continues for 1 hr in a 37° C., 5% CO2 incubator prior to 10 minute PIK3CA stimulation with 20 ng/ml EGF. Cells treated with 0.1% DMSO and 20 ng/mL EGF are employed as negative control, cells treated with 10 uM Alpelisib and 20 ng/mL EGF are employed as a positive control. After 10 mins, plates are removed from incubator and cells are lysed with buffer and shaking 45 minutes. […] 384 well plate is left overnight at room temperature before reading HTRF on an Envision plate reader.
ND denotes value not determined with that assay for the specified compound; • for T47D (H1047R) selectivity over SKBR3 (WT): A denotes >20-fold; B denotes 20-fold≥value>5-fold; C denotes ≤5-fold. ND denotes value not determined with that assay for the specified compound; and • for T47D pAKT lipophilic efficiency (LiPE): A denotes >4; B denotes 4≥value>2; C denotes ≤2. ND denotes value not determined with that assay for the specified compound.

T1 sequence (P42336 whole entry H1047R): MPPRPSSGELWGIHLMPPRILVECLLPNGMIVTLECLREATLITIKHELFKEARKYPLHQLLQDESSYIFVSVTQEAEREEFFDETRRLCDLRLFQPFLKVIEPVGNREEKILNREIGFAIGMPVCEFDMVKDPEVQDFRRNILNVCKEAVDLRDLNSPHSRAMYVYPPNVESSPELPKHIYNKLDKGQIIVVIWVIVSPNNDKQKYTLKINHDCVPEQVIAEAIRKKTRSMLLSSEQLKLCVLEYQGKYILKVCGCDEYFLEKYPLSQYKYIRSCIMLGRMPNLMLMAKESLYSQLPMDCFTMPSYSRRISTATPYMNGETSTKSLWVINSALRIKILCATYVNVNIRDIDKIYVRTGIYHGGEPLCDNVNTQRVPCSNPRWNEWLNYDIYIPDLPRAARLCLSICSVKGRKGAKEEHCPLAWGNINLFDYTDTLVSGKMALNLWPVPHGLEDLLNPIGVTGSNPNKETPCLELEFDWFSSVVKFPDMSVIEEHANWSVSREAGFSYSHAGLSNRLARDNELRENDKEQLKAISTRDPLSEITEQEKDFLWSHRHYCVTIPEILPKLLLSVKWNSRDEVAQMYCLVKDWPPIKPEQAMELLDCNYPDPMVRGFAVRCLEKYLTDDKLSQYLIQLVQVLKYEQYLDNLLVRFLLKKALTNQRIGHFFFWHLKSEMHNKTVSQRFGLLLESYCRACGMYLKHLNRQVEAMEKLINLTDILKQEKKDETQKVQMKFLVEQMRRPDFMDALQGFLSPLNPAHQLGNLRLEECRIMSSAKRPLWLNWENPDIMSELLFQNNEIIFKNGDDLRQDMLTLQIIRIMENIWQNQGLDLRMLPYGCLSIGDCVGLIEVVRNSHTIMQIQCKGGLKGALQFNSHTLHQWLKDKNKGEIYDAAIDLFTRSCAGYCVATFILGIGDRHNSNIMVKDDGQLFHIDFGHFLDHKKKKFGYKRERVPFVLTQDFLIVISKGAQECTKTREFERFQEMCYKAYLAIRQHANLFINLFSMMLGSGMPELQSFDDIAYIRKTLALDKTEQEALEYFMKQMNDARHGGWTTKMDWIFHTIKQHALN
T1 sequence (P27986 whole entry partner): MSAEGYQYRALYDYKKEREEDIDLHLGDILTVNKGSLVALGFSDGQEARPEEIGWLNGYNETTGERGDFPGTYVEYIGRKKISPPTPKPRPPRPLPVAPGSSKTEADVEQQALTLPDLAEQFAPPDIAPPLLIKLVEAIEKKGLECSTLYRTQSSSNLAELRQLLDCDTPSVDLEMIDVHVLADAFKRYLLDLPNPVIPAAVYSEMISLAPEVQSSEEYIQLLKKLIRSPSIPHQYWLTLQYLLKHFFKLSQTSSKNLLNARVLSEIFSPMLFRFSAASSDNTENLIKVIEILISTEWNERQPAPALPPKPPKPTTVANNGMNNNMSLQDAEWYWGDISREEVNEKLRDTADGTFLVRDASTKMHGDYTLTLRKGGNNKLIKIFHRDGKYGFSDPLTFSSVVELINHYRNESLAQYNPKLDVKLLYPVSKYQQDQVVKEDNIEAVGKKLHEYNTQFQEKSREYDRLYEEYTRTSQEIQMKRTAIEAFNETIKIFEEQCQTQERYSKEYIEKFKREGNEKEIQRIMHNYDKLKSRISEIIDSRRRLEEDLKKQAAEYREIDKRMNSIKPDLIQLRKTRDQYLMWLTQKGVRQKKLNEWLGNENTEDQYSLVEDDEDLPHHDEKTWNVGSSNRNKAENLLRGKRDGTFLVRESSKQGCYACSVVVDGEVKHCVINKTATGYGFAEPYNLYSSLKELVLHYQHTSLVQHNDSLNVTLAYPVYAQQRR

| IC50 [µM] | T47D pAKT S473 HTRF IC50 (H1047R): T47D (H1047R) selectivity over SKBR3 (WT) | Structure (SMILES) |
| --- | --- | --- |
| > 2 | C (C denotes ≤5-fold) | Cc1cc([C@H](C)Nc2ccccc2CC(=O)O)c2nc(N3CCOCC3)cc(=O)n2c1 [Compound 158] |
| > 2 | C (C denotes ≤5-fold) | Cc1cc([C@H](C)Nc2ccccc2S(C)(=O)=O)c2nc(N3CCOCC3)cc(=O)n2c1 [Compound 160] |
|  | C (C denotes ≤5-fold) | Cc1cc([C@@H](C)Nc2ccccc2C(=O)O)c2nc(C)cc(=O)n2c1 [Compound 178] |
| > 2 | C (C denotes ≤5-fold) | Cc1cc(C(C)Nc2cnccc2C(=O)O)c2nc(N3CCOCC3)cc(=O)n2c1 (centres unmarked) [Compound 194] |
| > 2 | C (C denotes ≤5-fold) | CCN1CCN(Cc2ccccc2-c2cc(=O)n3cc(C)cc(C(C)Nc4ccccc4C(=O)O)c3n2)CC1 (centres unmarked) [Compound 229] |
| > 2 | C (C denotes ≤5-fold) | Cc1cc(C(C)Nc2ccccc2C(=O)O)c2nc(N3CCSCC3)cc(=O)n2c1 (centres unmarked) [Compound 239] |
| < 0.1 | A (A denotes >20-fold) | Cc1cc(C(C)Nc2ccccc2C(=O)O)c2nc(N3CCSCC3)cc(=O)n2c1 (centres unmarked) [Compound 240] |
| < 0.1 | C (C denotes ≤5-fold) | Cc1cc([C@@H](C)Nc2ccccc2C)c2nc(N3CCOCC3)cc(=O)n2c1 [Compound 248] |
| 0.5 to 2 | C (C denotes ≤5-fold) | Cc1cc([C@H](C)Nc2ccccc2C)c2nc(N3CCOCC3)cc(=O)n2c1 [Compound 249] |
| > 2 | C (C denotes ≤5-fold) | Cc1cc([C@H](C)Nc2ccccc2)c2nc(-c3cc(C)c4oc(=O)[nH]c4c3)cc(=O)n2c1 [Compound 252] |
| > 2 | C (C denotes ≤5-fold) | Cc1cc([C@H](C)Nc2ccccc2)c2nc(-c3cc(F)c4c(N)n[nH]c4c3)cc(=O)n2c1 [Compound 258] |
| 0.5 to 2 | C (C denotes ≤5-fold) | Cc1cc([C@@H](C)Nc2cc(F)cc(F)c2)c2nc(N3CCOCC3)cc(=O)n2c1 [Compound 263] |
| > 2 | C (C denotes ≤5-fold) | Cc1cc([C@H](C)Nc2cc(F)cc(F)c2)c2nc(N3CCOCC3)cc(=O)n2c1 [Compound 264] |
| > 2 | C (C denotes ≤5-fold) | Cc1cc(C(C)Nc2ccccc2)c2nc(-c3cnc4[nH]nc(-c5ccccc5)c4c3)cc(=O)n2c1 (centres unmarked) [Compound 265] |
| > 2 | C (C denotes ≤5-fold) | Cc1cc([C@H](C)Nc2ccccc2)c2nc(-c3cnc4[nH]nc(-c5ccccc5)c4c3)cc(=O)n2c1 [Compound 266] |
| 0.1 to 0.5 | A (A denotes >20-fold) | Cc1cc(C(C)Nc2ccccc2C(=O)O)c2nc(-c3ccncc3)cc(=O)n2c1 (centres unmarked) [Compound 267] |
| > 2 | C (C denotes ≤5-fold) | CC(Nc1ccccc1C(=O)O)c1cc(C#N)cn2c(=O)cc(N3CCOCC3)nc12 (centres unmarked) [Compound 273] |
| < 0.1 | C (C denotes ≤5-fold) | CC(Nc1ccccc1C(=O)O)c1cc(C(N)=O)cn2c(=O)cc(N3CCOCC3)nc12 (centres unmarked) [Compound 276] |
|  | C (C denotes ≤5-fold) | Cc1cc(C(C)Nc2ccccc2)c2nc(-c3ccc(N4CC(C)(C)C4)c(C#N)c3)cc(=O)n2c1 (centres unmarked) [Compound 280] |
| > 2 | C (C denotes ≤5-fold) | Cc1cc(C(C)NC2=C(CC(=O)O)C=CCC2)c2nc(N3CCSCC3)cc(=O)n2c1 (centres unmarked) [Compound 284] |
| > 2 | C (C denotes ≤5-fold) | Cc1cc([C@@H](C)NC2=C(CC(=O)O)C=CCC2)c2nc(N3CCSCC3)cc(=O)n2c1 [Compound 285] |
| > 2 | C (C denotes ≤5-fold) | Cc1cc([C@H](C)Nc2ccccc2CC(=O)O)c2nc(N3CCSCC3)cc(=O)n2c1 [Compound 286] |

| IC50 [µM] | T47D pAKT S473 HTRF IC50 (H1047R): T47D (H1047R) selectivity over SKBR3 (WT) | Structure (SMILES) |
| --- | --- | --- |
| > 2 | C (C denotes ≤5-fold) | Cc1cc(C(C)Nc2cccc(F)c2C(=O)O)c2nc(N3CCOCC3)cc(=O)n2c1 (centres unmarked) [Compound 287] |
| 0.5 to 2 | B (B denotes 20-fold≥value>5-fold) | Cc1cc(C(C)Nc2ccc(F)cc2C(=O)O)c2nc(N3CCOCC3)cc(=O)n2c1 (centres unmarked) [Compound 288] |
| 0.1 to 0.5 | C (C denotes ≤5-fold) | Cc1cc(C(C)Nc2cc(F)ccc2C(=O)O)c2nc(N3CCOCC3)cc(=O)n2c1 (centres unmarked) [Compound 289] |
| > 2 | C (C denotes ≤5-fold) | Cc1cc(C(C)Nc2c(F)cccc2C(=O)O)c2nc(N3CCOCC3)cc(=O)n2c1 (centres unmarked) [Compound 290] |
| > 2 | C (C denotes ≤5-fold) | CC[C@@H](Nc1ccccc1C(=O)O)c1cc(C)cn2c(=O)cc(N3CCOCC3)nc12 [Compound 293] |
| 0.5 to 2 | C (C denotes ≤5-fold) | CC[C@H](Nc1ccccc1C(=O)O)c1cc(C)cn2c(=O)cc(N3CCOCC3)nc12 [Compound 294] |
| 0.5 to 2 | B (B denotes 20-fold≥value>5-fold) | Cc1cc(C(C)Nc2ccccc2C(=O)O)c2nc(N3CCOC[C@H]3C)cc(=O)n2c1 (some centres unmarked) [Compound 295] |
| > 2 | C (C denotes ≤5-fold) | Cc1cc([C@@H](C)Nc2ccccc2C(=O)O)c2nc(N3CCOC[C@H]3C)cc(=O)n2c1 [Compound 296] |
| 0.1 to 0.5 | A (A denotes >20-fold) | Cc1cc([C@H](C)Nc2ccccc2C(=O)O)c2nc(N3CCOC[C@H]3C)cc(=O)n2c1 [Compound 297] |
| > 2 | C (C denotes ≤5-fold) | CONC(=O)c1ccc(-c2cc(=O)n3cc(C)cc(C(C)NC4=CC=CCC4C(=O)O)c3n2)c(OC)c1 (centres unmarked) [Compound 299] |
| > 2 | C (C denotes ≤5-fold) | Cc1cc(C(C)NC2=CC=CCC2C(=O)O)c2nc(Cc3cccc(C4=CCCC=C4)c3)c(C)c(=O)n2c1 (centres unmarked) [Compound 300] |
| 0.5 to 2 | B (B denotes 20-fold≥value>5-fold) | Cc1cc(C(C)Nc2ccccc2C(=O)O)c2nc(-c3ccc(S(N)(=O)=O)cc3)cc(=O)n2c1 (centres unmarked) [Compound 302] |
| > 2 | C (C denotes ≤5-fold) | Cc1cc(C(C)Nc2ccccc2C(=O)O)c2nc(-c3cccc(-c4nn[nH]n4)c3)cc(=O)n2c1 (centres unmarked) [Compound 303] |
| > 2 | C (C denotes ≤5-fold) | Cc1cc(C(C)Nc2ccccc2C(=O)O)c2nc(-c3ccc4[nH]nc(-c5ccccn5)c4c3)cc(=O)n2c1 (centres unmarked) [Compound 304] |
| 0.5 to 2 | B (B denotes 20-fold≥value>5-fold) | Cc1cc([C@@H](C)Nc2ccccc2C(=O)O)c2nc(-c3ccc(CC4CCN(C)CC4)cc3)c(C)c(=O)n2c1 [Compound 307] |
| > 2 | C (C denotes ≤5-fold) | Cc1cc(C(C)Nc2ccccc2C(=O)O)c2nc(-c3ccc(CN4CCN(C)CC4)cc3)cc(=O)n2c1 (centres unmarked) [Compound 308] |
| > 2 | C (C denotes ≤5-fold) | Cc1cc([C@@H](C)N(C)c2ccccc2C(=O)O)c2nc(N3CCOCC3)cc(=O)n2c1 [Compound 309] |
| > 2 | C (C denotes ≤5-fold) | Cc1cc([C@H](C)N(C)c2ccccc2C(=O)O)c2nc(N3CCOCC3)cc(=O)n2c1 [Compound 310] |
| > 2 | C (C denotes ≤5-fold) | COCCNc1cc(=O)n2cc(C)cc(C(C)Nc3ccccc3C(=O)O)c2n1 (centres unmarked) [Compound 313] |
| 0.5 to 2 | B (B denotes 20-fold≥value>5-fold) | Cc1cc(C(C)Nc2ccccc2C(=O)O)c2nc(N3C[C@@H](C)O[C@@H](C)C3)cc(=O)n2c1 (some centres unmarked) [Compound 315] |
| > 2 | C (C denotes ≤5-fold) | Cc1cc([C@@H](C)Nc2ccccc2C(=O)O)c2nc(C3CCOCC3)cc(=O)n2c1 [Compound 316] |
| 0.1 to 0.5 | A (A denotes >20-fold) | Cc1cc([C@H](C)Nc2ccccc2C(=O)O)c2nc(C3CCOCC3)cc(=O)n2c1 [Compound 317] |
